Where two headings read alike, the source gives them in different places.
Legend:
[1] = Transplacental transfer efficiency (TTE): cord serum at delivery divided by maternal serum concentration, present study; assay type: in vivo, human; settings: for TTE calculated from cord:maternal serum concentrations, arithmetic mean / TTE calculated from cord:maternal serum concentrations, maximum / TTE calculated from cord:maternal serum concentrations, median / TTE calculated from cord:maternal serum concentrations, minimum: cord serum at delivery / maternal serum at 15 weeks of gestation; for Mean cord:maternal serum concentration: Present study
[2] = Total PFC concentrations in maternal and cord sera by HPLC-MS/MS; assay type: in vivo, human; settings: for mean concentration in cord serum: cord serum at delivery
Description: Blood collection. Samples (n = 20) analyzed in this study are a subset of the Chemicals, Health and Pregnancy (CHirP) cohort recruited in 2007–2008 in Vancouver (BC, Canada) ([Webster et al. 2011]). All participants provided informed consent. Laboratory personnel collected blood samples from pregnant volunteers in Vancouver at 15 weeks of gestation, and samples of cord blood (n = 20) were collected at delivery. After serum separation, all samples were stored at –80°C. Ethical clearance was obtained from the research ethics boards of the University of British Columbia, the University of Alberta, Health Canada, and the three participating hospitals.
Serum preparation. The method of [Kuklenyik et al. (2004)] was adapted for the extraction of PFCs from serum using a Rapid Trace system (Caliper Life Sciences, Hopkinton, MA, USA). The solid-phase extraction cartridge (Oasis-HLB, Waters, Milford, MA, USA; 60 mg/3 mL) was conditioned with 2 mL methanol followed by 2 mL of 0.1 M formic acid. Serum was prepared for extraction by mixing 3 mL of 0.1 M formic acid with 1.0 mL serum. After the addition of mass-labeled internal standards (10 ng each), the mixture was vortexed and sonicated for 20 min. Prepared serum was added to the column and washed successively with 3 mL of 0.1 M formic acid, 6 mL of 50% 0.1 M formic acid/50% methanol, and 1 mL of 1% ammonium hydroxide. The cartridge was drained by vacuum, and PFCs were eluted with 1.0 mL of 1% ammonium hydroxide in acetonitrile. The eluate was concentrated to 100 μL followed by the addition of 200 μL of 90% 20 mM acetic acid in 10% methanol. Method blanks containing calf serum, a calf serum sample spiked at 0.5 ng/mL of each PFC, and a human serum sample spiked at 10 ng/mL were analyzed with the study samples.
Total PFC analysis. For total PFC concentrations, separation was by HPLC on a 150-mm Synergi Hydro-RP C-18 column (Phenomenex, Torrance, CA, USA). Gradient elution at 600 μL/min used A [20 mM ammonium acetate (pH 4) in water] and B (methanol) mobile phases. Initial conditions were 60% A for 1 min, ramped to 20% A by 3 min, a 5-min hold, an increase to 100% B by 8.5 min, and a hold until 14 min, at which time initial conditions were reestablished. MS/MS data were collected on an Applied Biosystems API 3000 mass spectrometer (Applied Biosystems, Carlsbad, CA, USA) using electrospray ionization in negative-ion mode [for mean recoveries of total PFCs in serum and dust, see Supplemental Material, Table 1 (http://dx.doi.org/10.1289/ehp.1003265)].

[3] = cited from earlier work
[4] = maternal serum, 15 weeks of gestation
[5] = Canada, 2007, n 20, maternal serum sampled in the second trimester
[6] = TTE adjusted from 15 weeks to time of delivery (~ 40 weeks) using data from Monroy et al. (2008)
[7] = Canada, 2004–2005, n 101, ref Monroy et al. 2008
[8] = Denmark, 1996–2002, n 50, maternal serum sampled in the first trimester, ref Fei et al. 2007
[9] = Denmark, 1996–2002, n 50, maternal serum sampled in the second trimester, ref Fei et al. 2007
[10] = Faroe Islands, 2000, n 12, ref Needham et al. 2011
[11] = Germany, 2003, n 11, ref Midasch et al. 2007
[12] = Germany, 2007–2009, n 27, ref Fromme et al. 2010
[13] = Korea, 2007, n 20, ref Kim et al. 2011
[14] = South Africa, 2005–2006, n 58, ref Hanssen et al. 2010

SMILES	TTE calculated from cord:maternal serum concentrations, arithmetic mean [1]	TTE calculated from cord:maternal serum concentrations, maximum [1]	TTE calculated from cord:maternal serum concentrations, median [1]	TTE calculated from cord:maternal serum concentrations, minimum [1]	other results
O=S(=O)(O)C(F)(C(F)(F)F)C(F)(F)C(F)(F)C(F)(F)C(F)(F)C(F)(F)C(F)(F)F (stereo not shown) [1m-PFOS]	0.87	1.24	0.88	0.36	–
O=C(O)C(F)(F)C(F)(C(F)(F)F)C(F)(F)C(F)(F)C(F)(F)C(F)(F)F (stereo not shown) [3m-PFOA]	0.76	–	0.68	0.07	–
O=S(=O)(O)C(F)(F)C(F)(F)C(F)(C(F)(F)F)C(F)(F)C(F)(F)C(F)(F)C(F)(F)F (stereo not shown) [3m-PFOS]	0.67	1.12	0.68	0.21	–
O=C(O)C(F)(F)C(F)(F)C(F)(C(F)(F)F)C(F)(F)C(F)(F)C(F)(F)F (stereo not shown) [4m-PFOA]	0.64	1.29	0.68	0.09	TTE calculated from cord:maternal serum concentrations, maximum ([1]; listed as 4m-PFOA): > 1.0
O=S(=O)(O)C(F)(F)C(F)(F)C(F)(F)C(F)(C(F)(F)F)C(F)(F)C(F)(F)C(F)(F)F (stereo not shown) [4m-PFOS]	0.55	0.85	0.52	0.20	–
O=C(O)C(F)(F)C(F)(F)C(F)(F)C(F)(C(F)(F)F)C(F)(F)C(F)(F)F (stereo not shown) [5m-PFOA]	0.86	2.26	0.54	0.09	TTE calculated from cord:maternal serum concentrations, maximum ([1]; listed as 5m-PFOA): > 1.0
O=S(=O)(O)C(F)(F)C(F)(F)C(F)(F)C(F)(F)C(F)(C(F)(F)F)C(F)(F)C(F)(F)F (stereo not shown) [5m-PFOS]	0.53	0.93	0.52	0.25	–
O=S(=O)(O)C(F)(F)C(F)(F)C(F)(F)C(F)(F)C(F)(F)C(F)(C(F)(F)F)C(F)(F)F [Iso- PFOS]	0.36	0.60	0.34	0.09	–
O=C(O)C(F)(F)C(F)(F)C(F)(F)C(F)(F)C(F)(C(F)(F)F)C(F)(F)F [Iso-PFOA]	0.84	2.56	0.67	0.16	–
O=C(O)C(F)(F)C(F)(F)C(F)(F)C(F)(F)C(F)(F)C(F)(F)C(F)(F)C(F)(F)C(F)(F)F [Total PFDA, perfluorodecanoate]	0.34	1.10	0.23	0.00	mean concentration in cord serum [2]: 0.1 ng/mL; mean concentration in maternal serum [2, 4]: 0.4 ng/mL
O=S(=O)(O)C(F)(F)C(F)(F)C(F)(F)C(F)(F)C(F)(F)C(F)(F)F [Total PFHxS, perfluorohexane sulfonate]	0.41	0.56	0.38	0.29	mean concentration in cord serum [2]: 0.7 ng/mL; concentration at 15 weeks of gestation ([2]; female, human, maternal serum, 15 weeks of gestation): 1.7 ng/mL
O=C(O)C(F)(F)C(F)(F)C(F)(F)C(F)(F)C(F)(F)C(F)(F)C(F)(F)C(F)(F)F [Total PFNA, perfluorononanoate]	0.41	0.78	0.38	0.13	mean concentration in cord serum [2]: 0.4 ng/mL; mean concentration in maternal serum [2, 4]: 0.9 ng/mL
O=C(O)C(F)(F)C(F)(F)C(F)(F)C(F)(F)C(F)(F)C(F)(F)C(F)(F)F [Total PFOA, perfluorooctanoate]	0.61	0.96	0.63	0.32	Mean cord:maternal serum concentration [1, 5]: 0.61; Mean cord:maternal serum concentration [1, 6]: 0.71; mean concentration in cord serum [2]: 1.1 ng/mL; mean concentration in maternal serum [2, 4]: 1.8 ng/mL; Mean cord:maternal serum concentration [3, 7]: 0.81; Mean cord:maternal serum concentration [3, 8]: 0.55; Mean cord:maternal serum concentration [3, 9]: 0.68; Mean cord:maternal serum concentration [3, 10]: 0.72; Mean cord:maternal serum concentration [3, 11]: 1.26; Mean cord:maternal serum concentration [3, 12]: 0.70; Mean cord:maternal serum concentration [3, 13]: 0.69; Mean cord:maternal serum concentration [3, 14]: 0.71
O=S(=O)(O)C(F)(F)C(F)(F)C(F)(F)C(F)(F)C(F)(F)C(F)(F)C(F)(F)C(F)(F)F [Total PFOS, perfluorooctane sulfonate]	0.33	0.53	0.31	0.20	Mean cord:maternal serum concentration [1, 5]: 0.33; Mean cord:maternal serum concentration [1, 6]: 0.36; mean concentration in cord serum [2]: 1.8 ng/mL; mean concentration in maternal serum [2, 4]: 5.5 ng/mL; Mean cord:maternal serum concentration [3, 7]: 0.45; Mean cord:maternal serum concentration [3, 8]: 0.29; Mean cord:maternal serum concentration [3, 9]: 0.34; Mean cord:maternal serum concentration [3, 10]: 0.34; Mean cord:maternal serum concentration [3, 11]: 0.60; Mean cord:maternal serum concentration [3, 12]: 0.30; Mean cord:maternal serum concentration ([3]; Japan, 2003, n 15, ref Inoue et al. 2004): 0.32; Mean cord:maternal serum concentration [3, 13]: 0.36; Mean cord:maternal serum concentration [3, 14]: 0.45
O=C(O)C(F)(F)C(F)(F)C(F)(F)C(F)(F)C(F)(F)C(F)(F)C(F)(F)F [n-PFOA]	0.62	1.00	0.61	0.26	–
O=S(=O)(O)C(F)(F)C(F)(F)C(F)(F)C(F)(F)C(F)(F)C(F)(F)C(F)(F)C(F)(F)F [n-PFOS, linear perfluorooctane sulfonate]	0.33	0.58	0.30	0.10	–
O=C(O)C(F)(F)C(F)(F)C(F)(F)C(C(F)(F)F)(C(F)(F)F)C(F)(F)F [tb-PFOA]	0.25	0.48	0.25	0.02	–

— paper PMC3226492, “Isomer Profiles of Perfluorochemicals in Matched Maternal, Cord, and House Dust Samples: Manufacturing Sources and Transplacental Transfer” (Environmental Health Perspectives, 2011)
